Tested on: vascular smooth muscles (thoracic aorta)
Assay: Calcium antagonistic action in vascular smooth muscles (spiral piece of thoracic aorta, Ca2+ dose-reaction curve in presence of KCl)
Type: cell-based, Male Wistar rats
Details: isolated rat aorta spiral piece, 37° C.; KCl 5×10^-2 M; CaCl2 10^-4 to 3×10^-2 M; test compound 3×10^-7 to 10^-5 M; Van Rossum method; 5 samples
Method: Male Wistar rats weighing about 250 g were anesthetized with ether, hit hard in the occipital region, and the both common carotid arteries were cut to let blood, and the thoracic aorta was removed. Fat tissues depositing on the extracted blood vessel were removed, and a spiral piece of 2 mm×50 mm was prepared.
This spiral piece of aort was kept at 37° C., and was suspended in an organ bath containing Ca^2+ --free Krebs--Henseleit solution ventilated with mixed gas of 95% O2 and 5% CO2 and its contraction reaction was measured in the following method by way of an isotonic transducer.
In the first place, to the spiral piece deprived of Ca^2+, CaCl2 solution of 10^-4 to 3×10^-2 M was comulatively added in the presence of KCl of 5×10^-2 M, and the dose-reaction curve by Ca^2+ was determined, and after removing Ca^2+ again, the dose-reaction curve by Ca^2+ was determined in the presence of the test compound, and from the difference of these reactions, the pA2 value of Ca^2+ antagonistic action of the test compound was calculated. The concentration of the test compound was 3×10^-7 to 10^-5 M. (The pA2 value was calculated according to the method proposed by Van Rossum, J. M., in Arch. Int. Pharmarcodyn., 143, 299-330, 1963).

SMILES	pA2 value of Ca^2+ antagonistic action
CCOP(=O)(Cc1ccc(C(=O)N(Cc2ccc([N+](=O)[O-])cc2)c2ccccc2)cc1)OCC [Example 46]	6.07 ± 0.12
CCOP(=O)(Cc1ccc(C(=O)N(Cc2ccccc2)c2ccccc2)cc1)OCC [Example 45, 4-diethoxyphosphinylmethyl-N-benzyl-N-phenylbenzamide]	6.75 ± 0.08
CCOP(=O)(Cc1ccc(C(=O)N(Cc2ccccc2)c2ccc(OC)cc2)cc1)OCC [Example 56, 4-diethoxyphosphinylmethyl-N-benzyl-N-(4-methoxyphenyl)benzamide]	6.99 ± 0.11
CCOP(=O)(Cc1cccc(C(=O)N(Cc2ccc(C(=O)OC)cc2)c2ccccc2)c1)OCC [Example 74]	6.50 ± 0.09
CCOP(=O)(Cc1ccc(C(=O)Nc2ccccc2O)cc1)OCC [Example 13]	6.52 ± 0.10

Reference: patent US4822780A, “Carboxamide compounds” (Otsuka Pharmaceutical Factory, Inc., priority 1987, dated 1989)
